How the values were obtained:
Assay type in all cases: ADME, organism-based
[1] = Absorption in percutaneously dosed healthy human at 1166 mg; conditions: in vivo, topical or ocular, read-out: Activity
[2] = Apparent half-life of the terminal disposition phase half life in percutaneously dosed healthy human at 1166 mg; conditions: in vivo, topical or ocular, read-out: t1/2 lambda z (converted)
[3] = Excretion in percutaneously dosed healthy human urine at 1166 mg up to 48 hrs; conditions: topical or ocular, read-out: Activity
Homo sapiens = assay: Time to reach maximum urine excretion rate in percutaneously dosed healthy human at 1166 mg; conditions: in vivo, topical_or_ocular

Q: What does the source list for `Oc1cc(Cl)ccc1Oc1ccc(Cl)cc1Cl` [TRICLOSAN]?
A: Fa [1]: 5.9%; half-life [2]: 10.8 h; dose excreted at 48 h [3]: 4.9%; Time (Homo sapiens): 11 h

— ChEMBL document CHEMBL1212743, “Absorption, pharmacokinetics, and safety of triclosan after dermal administration” (Antimicrob Agents Chemother, 2010)
